Data reported in patent US20260372306A1, “MICROBIOCIDAL HETEROBICYCLIC DIHYDROOXADIAZINE DERIVATIVES” (SYNGENTA CROP PROTECTION AG, priority 2022, published 2026).

Legend:
Botryotinia fuckeliana = Botryotinia fuckeliana syn. Botrytis cinerea (Gray Mould of Grapevine), growth inhibition in nutrient broth; type: cell-based; settings: Vogels broth, 24 °C, photometric, 3-4 days after application, read-out: control of Botryotinia fuckeliana (inhibition of growth)
Experimental: (§1) Mycelia fragments or conidia suspensions of a fungus prepared either freshly from liquid cultures of the fungus or from cryogenic storage, are directly mixed into nutrient broth. DMSO solutions of the test compound (max. 10 mg/mL) are diluted with 0.025% Tween20 by a factor of 50 and 10 μL of this solution is pipetted into a microtiter plate (96-well format). The nutrient broth containing the fungal spores/mycelia fragments is then added to give an end concentration of the tested compound. The test plates are incubated in the dark at 24 °C and 96% relative humidity. The inhibition of fungal growth is determined photometrically after 2 to 7 days, depending on the pathosystem, and percent antifungal activity relative to the untreated check is calculated.
(§2) Conidia of the fungus from cryogenic storage are directly mixed into nutrient broth (Vogels broth). After placing a (DMSO) solution of test compound into a microtiter plate (96-well format), the nutrient broth containing the fungal spores is added. The test plates are incubated at 24 °C and the inhibition of growth is determined photometrically 3-4 days after application.

Glomerella lagenarium = Glomerella lagenarium syn. Colletotrichum lagenarium (Anthracnose of Cucurbits), growth inhibition in nutrient broth; type: cell-based; settings: Colletotrichum orbiculare, PDB potato dextrose broth, 24 °C, photometric, 3-4 days after application, read-out: control of Glomerella lagenarium (inhibition of growth)
Experimental: as §1
as §2, with “(PDB potato dextrose” for “(Vogels”, “measured” for “determined”

Sclerotinia sclerotiorum = Sclerotinia sclerotiorum (Cottony Rot of Oilseed Rape), growth inhibition in nutrient broth; type: cell-based; settings: PDB potato dextrose broth, 24 °C, photometric, 3-4 days after application, read-out: control of Sclerotinia sclerotiorum (inhibition of growth)
Experimental: as §1
as §2, with “Mycelia fragments of a newly grown liquid culture” for “Conidia”, “fungus” for “fungus from cryogenic storage”, “(PDB potato dextrose” for “(Vogels”, “format)” for “format),”, “material” for “spores”

Monographella nivalis = Monographella nivalis syn. Microdochium nivale, Fusarium nivale (Snow Mould, Foot Rot of Cereals), growth inhibition in nutrient broth; type: cell-based; settings: PDB potato dextrose broth, 24 °C, photometric, 4-5 days after application, read-out: control of Monographella nivalis (inhibition of growth)
Experimental: as §1
as §2, with “(PDB potato dextrose” for “(Vogels”, “4-5” for “3-4”

[1] = tested on: Mycosphaerella graminicola; assay: Mycosphaerella graminicola (Septoria tritici) (Septoria Blotch), growth inhibition in nutrient broth; type: cell-based; settings: Zymoseptoria tritici, read-out: control of Mycosphaerella gramminicola (inhibition of growth)
Experimental: as §1
as §2, with “(PDB potato dextrose” for “(Vogels”, “4-5” for “3-4”

Alternaria solani = Alternaria solani (Early Blight of Tomato), tomato leaf disks, preventative; type: in vivo; settings: 200 ppm; tomato leaf disks cv. Baby; inoculated 2 days after application; assessed 5-7 days after application
Experimental: (§3) Leaf disks or leaf segments of various plant species are cut from plants grown in a greenhouse. The cut leaf disks or segments are placed in multiwell plates (24-well format) onto water agar. The leaf disks are sprayed with a test solution before (preventative) or after (curative) inoculation. Compounds to be tested are prepared as DMSO solutions (max. 10 mg/mL) which are diluted to the appropriate concentration with 0.025% Tween20 just before spraying. The inoculated leaf disks or segments are incubated under defined conditions (temperature, relative humidity, light, etc.) according to the respective test system. A single evaluation of disease level is carried out 3 to 14 days after inoculation, depending on the pathosystem. Percent disease control relative to the untreated check leaf disks or segments is then calculated.
Tomato leaf disks cv. Baby are placed on agar in multiwell plates (24-well format) and sprayed with the formulated test compound diluted in water. […] The inoculated leaf disks are incubated at 23 °C/21 °C (day/night) and 80% rh under a light regime of 12/12 h (light/dark) in a climate cabinet and the activity of a compound is assessed as percent disease control compared to untreated when an appropriate level of disease damage appears on untreated check disk leaf disks (5-7 days after application).

Pyrenophora teres = Pyrenophora teres (Net Blotch of Barley), barley leaf segments, preventative; type: in vivo; settings: 200 ppm; barley leaf segments cv. Hasso; inoculated 2 days after application; assessed 5-7 days after application
Experimental: as §3
Barley leaf segments cv. Hasso are placed on agar in a multiwell plate (24-well format) and sprayed with the formulated test compound diluted in water. […] The inoculated leaf segments are incubated at 20 °C and 65% rh under a light regime of 12 h light/12 h darkness in a climate cabinet and the activity of a compound is assessed as disease control compared to untreated when an appropriate level of disease damage appears in untreated check leaf segments (5-7 days after application).

Clc1ccc(CC2CON=C(c3c(Oc4cccc(C5CC5)c4)cnc4c(Cl)cnn34)N2)c(Cl)c1 (stereo not shown) [Compound 1.2, 3-[3-chloro-6-(3-cyclopropylphenoxy)pyrazolo[1,5-a]pyrimidin-7-yl]-5-[(2,4-dichlorophenyl)methyl]-5,6-dihydro-4H-1,2,4-oxadiazine]
inhibition at 20 ppm (Botryotinia fuckeliana): ≥ 80%

Clc1ccc(CC2CON=C(c3c(Oc4cccc(C5CC5)c4)cnn4ccnc34)N2)c(Cl)c1 (stereo not shown) [Compound 1.5, 3-[7-(3-cyclopropylphenoxy)imidazo[1,2-b]pyridazin-8-yl]-5-[(2,4-dichlorophenyl)methyl]-5,6-dihydro-4H-1,2,4-oxadiazine]
inhibition at 20 ppm (Glomerella lagenarium): ≥ 80%
inhibition at 20 ppm (Sclerotinia sclerotiorum): ≥ 80%
inhibition at 20 ppm (Botryotinia fuckeliana): ≥ 80%
inhibition at 20 ppm (Monographella nivalis): ≥ 80%
inhibition at 20 ppm [1]: ≥ 80%

Clc1ccc(CC2CON=C(c3c(Oc4cccc(C5CC5)c4)cnc4cc(Cl)nn34)N2)c(Cl)c1 (stereo not shown) [Compound 1.4, 3-[2-chloro-6-(3-cyclopropylphenoxy)pyrazolo[1,5-a]pyrimidin-7-yl]-5-[(2,4-dichlorophenyl)methyl]-5,6-dihydro-4H-1,2,4-oxadiazine]
inhibition at 20 ppm (Botryotinia fuckeliana): ≥ 80%

Clc1ccc(CC2CON=C(c3c(Oc4cccc(C5CC5)c4)cnc4ccnn34)N2)c(Cl)c1 (stereo not shown) [Compound 1.1, 3-[6-(3-cyclopropylphenoxy)pyrazolo[1,5-a]pyrimidin-7-yl]-5-[(2,4-dichlorophenyl)methyl]-5,6-dihydro-4H-1,2,4-oxadiazine]
inhibition at 20 ppm (Glomerella lagenarium): ≥ 80%
control of Alternaria solani (percent disease control compared to untreated) (Alternaria solani): at least 80%
inhibition at 20 ppm (Sclerotinia sclerotiorum): ≥ 80%
inhibition at 20 ppm (Botryotinia fuckeliana): ≥ 80%
control of Pyrenophora teres (disease control compared to untreated) (Pyrenophora teres): at least 80%

Fc1cc2ncc(Oc3cccc(C4CC4)c3)c(C3=NOCC(Cc4ccc(Cl)cc4Cl)N3)n2n1 (stereo not shown) [Compound 1.3, 3-[6-(3-cyclopropylphenoxy)-2-fluoro-pyrazolo[1,5-a]pyrimidin-7-yl]-5-[(2,4-dichlorophenyl)methyl]-5,6-dihydro-4H-1,2,4-oxadiazine]
inhibition at 20 ppm (Botryotinia fuckeliana): ≥ 80%
